Source: patent US20260364190A1, “ANTIBODY DRUG CONJUGATE PLATFORMS” (BEONE MEDICINES I GMBH, priority 2023, published 2026)

Assays:
[1] = tested on: Calu-6 cells; test: Payload cellular killing in Calu-6 cancer line; assay type: cell-based; settings: 6 days, Cell Titer-Glo
Experimental: Calu-6 (ATCC, HTB-56). […] The base medium for Calu-6 is Eagle's Minimum Essential Medium (ATCC, 30-2003). […] The cell line was grown in a humidified 5% CO2 atmosphere at 37 °C, and was regularly tested for the presence of mycoplasma with MycoAlert™ PLUS Mycoplasma Detection Kit (Lonza, LT07-710).
(§1) Payload cellular killing was assessed in A375 and Calu-6 cancer lines. Cells were seeded (A375 (1E3/well) or Calu-6 (2E3/well)) into a 96-well plate (Greiner: 655090), at 100 μl/well and incubated at 37 °C, 5% CO2, overnight. Fresh growth medium was added containing varying concentrations of compounds, 50 μl/well, and incubated at 37 °C, 5% CO2, for 6 days. The cell viability was detected by Cell Titer-Glo (Promega, G7573). 70 μL of CellTiter-Glo® Reagent was added to each well. The plates were allowed to incubate at room temperature for 10 minutes to stabilize the luminescent signal. The plates were analyzed with a microplate reader.

[2] = tested on: A375 cells; test: Payload cellular killing in A375 cancer line; assay type: cell-based, human; settings: Cell Titer-Glo
Experimental: A375 (ATCC, CRL-1619). […] The base medium for A375 is DMEM, high glucose, GlutaMAX™ Supplement (Gibco, 10566024). […] The cell line was grown in a humidified 5% CO2 atmosphere at 37 °C, and was regularly tested for the presence of mycoplasma with MycoAlert™ PLUS Mycoplasma Detection Kit (Lonza, LT07-710).
as §1

Compound | EC50 ([1]; Homo sapiens) [nM] | Emax ([1]; Homo sapiens) [%] | EC50 ([2]; Homo sapiens, A-375, 6 days) [nM] | Emax ([2]; Homo sapiens, A-375, 6 days) [%] | Emax (%) [1] [%] | Emax (%) ([2]; 6 days) | EC50 [1] [nM] | EC50 ([2]; 6 days) [nM]
CC[C@@]1(O)C(=O)OCc2c1cc1n(c2=O)Cc2c-1nc1cc3c(c4c1c2[C@@H](NC(=O)OCCO)CC4)OCO3 [P10, 2-hydroxyethyl ((1S,10S)-10-ethyl-10-hydroxy-11,14-dioxo-2,3,10,11,14,16-hexahydro-1H,13H-benzo[de][1,3]dioxolo[4,5-g]pyrano[3′,4′:6,7]indolizino[1,2-b]quinolin-1-yl)carbamate] | 0.7 | 97.4 | 2.2 | 100 | – | – | – | –
CC[C@@]1(O)C(=O)OCc2c1cc1n(c2=O)Cc2c-1nc1cc(F)c(C)c3c1c2C(CCO)CC3 (stereo partly drawn) [P5, (9S)-9-ethyl-5-fluoro-9-hydroxy-1-(2-hydroxyethyl)-4-methyl-1,2,3,9,12,15-hexahydro-10H,13H-benzo[de]pyrano[3′,4′:6,7]indolizino[1,2-b]quinoline-10,13-dione] | – | – | – | – | 98.1 | 100.0 | – | –
CC[C@@]1(O)C(=O)OCc2c1cc1n(c2=O)Cc2c-1nc1cc3c(c4c1c2[C@@H](NC(=O)C(C)(F)CO)CC4)OCO3 (stereo partly drawn) [P9, N-((1S,10S)-10-ethyl-10-hydroxy-11,14-dioxo-2,3,10,11,14,16-hexahydro-1H,13H-benzo[de][1,3]dioxolo[4,5-g]pyrano[3′,4′:67]indolizino[1,2-b]quinolin-1-yl)-2-fluoro-3-hydroxy-2-methylpropanamide] | – | – | – | – | 98.3 | 100.0 | 0.9 | 2.1
CC[C@@]1(O)C(=O)OCc2c1cc1n(c2=O)Cc2c-1nc1cc(F)c(C)c3c1c2C(CCCO)CC3 (stereo partly drawn) [P3, (9S)-9-ethyl-5-fluoro-9-hydroxy-1-(3-hydroxypropyl)-4-methyl-1,2,3,9,12,15-hexahydro-10H,13H-benzo[de]pyrano[3′,4′:6,7]indolizino[1,2-b]quinoline-10,13-dione] | 0.2 | – | – | – | 99.2 | 100.0 | – | –
CC[C@@]1(O)C(=O)OCc2c1cc1n(c2=O)Cc2c-1nc1cc(F)c(C)c3c1c2C(CN(C)CCO)CC3 (stereo partly drawn) [P11, (9S)-9-ethyl-5-fluoro-9-hydroxy-1-(((2-hydroxyethyl)(methyl)amino)methyl)-4-methyl-1,2,3,9,12,15-hexahydro-10H,13H-benzo[de]pyrano[3′,4′:6,7]indolizino[1,2-b]quinoline-10,13-dione] | – | 98 | 0.8 | – | – | – | – | –
